Reference: patent US11066414B2, “Cot modulators and methods of use thereof” (Gilead Sciences, Inc., priority 2015, dated 2021)
Read-outs that look alike come from different tables or passages of the source.

Key:
Human Cot = Human Cot (Homo sapiens (Human), UniProt P41279); assay: High Throughput Cot Biochemical Assay; details: IC50 HTRF
TNFα = assay: Cot Monocyte TNFα Cell Based Assay; details: Homo sapiens, Monocyte
[1] = Cot HTRF (TR-FRET) biochemical assay
[2] = read-out: EC50 TNF, LPS-stimulated human monocytes, TNFα
[3] = Cot HTRF (TR-FRET KinEASE) biochemical assay, 400 μM ATP
[4] = read-out: EC50 TNF, LPS-stimulated human monocytes, TNFα TR-FRET

Human Cot, sequence (P41279 30-397): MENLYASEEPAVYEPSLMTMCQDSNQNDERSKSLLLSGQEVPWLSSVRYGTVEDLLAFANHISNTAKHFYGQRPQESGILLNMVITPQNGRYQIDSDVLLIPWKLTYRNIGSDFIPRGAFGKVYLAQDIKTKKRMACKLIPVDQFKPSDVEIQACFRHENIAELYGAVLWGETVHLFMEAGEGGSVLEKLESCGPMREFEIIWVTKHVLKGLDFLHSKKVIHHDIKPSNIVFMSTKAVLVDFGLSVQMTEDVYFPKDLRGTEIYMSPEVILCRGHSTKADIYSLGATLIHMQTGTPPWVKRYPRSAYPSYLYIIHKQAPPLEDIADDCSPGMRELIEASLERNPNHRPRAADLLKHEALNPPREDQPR

## CC(C)(C)CNc1c(C#N)cnc2c(C#N)cc(N[C@H](c3cn(C4(C#N)CC4)nn3)c3cccc4ncsc34)cc12 [Example 67, (S)-6-((benzo[d]thiazol-7-yl(1-(1-cyanocyclopropyl)-1H-1,2,3-triazol-4-yl)methyl)amino)-4-(neopentylamino)quinoline-3,8-dicarbonitrile]
Human Cot; [1]
  IC50: 1 nM
TNFα; [2]
  EC50: 32 nM

## Cn1nnc2cccc([C@H](Nc3cc(Cl)c4ncc(C#N)c(NCC(C)(C)C)c4c3)c3cn(C4(C(F)(F)F)CC4)nn3)c21 [Example 522, (S)-8-chloro-6-(((1-methyl-1H-benzo[d] [1,2,3]triazol-7-yl)(1-(1-(trifluoromethyl)-cyclopropyl)-1H-1,2,3-triazol-4-yl)methyl)amino)-4-(neopentylamino)-quinoline-3-carbonitrile]
Human Cot; [1]
  IC50: 5 nM
TNFα; [2]
  EC50: 52 nM

## CC(=O)c1cc(N[C@H](c2cn(C3(C(F)F)CC3)nn2)c2ccc(F)nc2C)cc2c(NCC(C)(C)C)c(C#N)cnc12 [Example 981, (S)-8-acetyl-6-(((1-(1-(difluoromethyl)cyclopropyl)-1H-1,2,3-triazol-4-yl)(6-fluoro-2-methylpyridin-3-yl)methyl)amino)-4-(neopentylamino)quinoline-3-carbonitrile]
Human Cot; [3]
  IC50: 4 nM
TNFα; [4]
  EC50: 20 nM

## N#Cc1cnc2c(Cl)cc(N[C@@H](c3cccnc3)c3cn(C4COC4)nn3)cc2c1Nc1cnc(F)c(F)c1 [Example 199, (S)-8-chloro-4-((5,6-difluoropyridin-3-yl)amino)-6-(((1-(oxetan-3-yl)-1H-1,2,3-triazol-4-yl)(pyridin-3-yl)methyl)amino)quinoline-3-carbonitrile]
Human Cot; [1]
  IC50: 9 nM
TNFα; [2]
  EC50: 2520 nM

## Cc1ccnc2cccc([C@H](Nc3cc(Cl)c4ncc(C#N)c(NCC(C)(C)C)c4c3)c3cn(C4(C(F)(F)F)CC4)nn3)c12 [Example 660, (S)-8-chloro-6-(((4-methylquinolin-5-yl)(1-(1-(trifluoromethyl)cyclopropyl)-1H-1,2,3-triazol-4-yl)methyl)amino)-4-(neopentylamino)quinoline-3-carbonitrile]
Human Cot; [1]
  IC50: 43 nM
TNFα; [2]
  EC50: 839 nM

## COc1c([C@@H](Nc2cc(Cl)c3ncc(C#N)c(NCC(C)(C)C)c3c2)c2ccc(F)nc2C)nnn1C1(C(F)F)CC1 [Example 965, (S)-8-chloro-6-(((1-(1-(difluoromethyl)cyclopropyl)-5-methoxy-1H-1,2,3-triazol-4-yl)(6-fluoro-2-methylpyridin-3-yl)methyl)amino)-4-(neopentylamino)quinoline-3-carbonitrile]
Human Cot; [3]
  IC50: 4 nM
TNFα; [4]
  EC50: 78 nM

## Cn1ncc2c([C@H](Nc3cc(Cl)c4ncc(C#N)c(NCC(C)(C)C)c4c3)c3cn(C4(C(F)F)CC4)nn3)cccc21 [Example 496, (S)-8-chloro-6-(((1-(1-(difluoromethyl)-cyclopropyl)-1H-1,2,3-triazol-4-yl)(1-methyl-1H-indazol-4-yl)methyl)amino)-4-(neopentylamino)quinoline-3-carbonitrile]
Human Cot; [1]
  IC50: 6 nM
TNFα; [2]
  EC50: 467 nM

## Cn1ncc2c([C@H](Nc3cc(C#N)c4ncc(C#N)c(NCC(C)(C)C)c4c3)c3cn(C4(C(F)(F)F)CC4)nn3)cccc21 [Example 557, (S)-6-(((1-methyl-1H-indazol-4-yl)(1-(1-(trifluoro-methyl)cyclopropyl)-1H-1,2,3-triazol-4-yl)methyl)amino)-4-(neopentylamino)-quinoline-3,8-dicarbonitrile]
Human Cot; [1]
  IC50: 5 nM
TNFα; [2]
  EC50: 117 nM

## Cc1nc(F)ccc1[C@H](Nc1cc(C#N)c2ncc(C#N)c(NCC(C)(C)C(F)(F)F)c2c1)c1cn(C23CC(C2)C3)nn1 [Example 833, (S)-6-(((1-(bicyclo[1.1.1]pentan-1-yl)-1H-1,2,3-triazol-4-yl)(6-fluoro-2-methylpyridin-3-yl)methyl)amino)-4-((3,3,3-trifluoro-2,2-dimethylpropyl)amino)quinoline-3,8-dicarbonitrile]
Human Cot; [3]
  IC50: 2 nM
TNFα; [4]
  EC50: 22 nM

## [2H][C@](Nc1cc(Cl)c2ncc(C#N)c(N[C@H](CC)c3ccccc3)c2c1)(c1cccnc1)c1cn(C2CC2)nn1 [Example 159, 8-chloro-6-(((S)-(1-cyclopropyl-1H-1,2,3-triazol-4-yl)(pyridin-3-yl)methyl-d)amino)-4-(((R)-1-phenylpropyl)amino)quinoline-3-carbonitrile]
Human Cot; [1]
  IC50: 2 nM
TNFα; [2]
  EC50: 95 nM

## Cn1ccc2c([C@H](Nc3cc(Cl)c4ncc(C#N)c(NCC(C)(C)C)c4c3)c3cn(C4CCN(C(C)(C)C)CC4)nn3)cccc2c1=O [Example 714, (S)-6-(((1-(1-(tert-butyl)piperidin-4-yl)-1H-1,2,3-triazol-4-yl)(2-methyl-1-oxo-1,2-dihydroisoquinolin-5-yl)methyl)amino)-8-chloro-4-(neopentylamino)quinoline-3-carbonitrile]
Human Cot; [1]
  IC50: 6 nM
TNFα; [2]
  EC50: 57 nM

## CC(C)(C)CNc1c(C#N)cnc2c(Cl)cc(N[C@H](c3cn(C4(C(F)F)CC4)nn3)c3cccc4cnccc34)cc12 [Example 536, (S)-8-chloro-6-(((1-(1-(difluoromethyl)-cyclopropyl)-1H-1,2,3-triazol-4-yl)(isoquinolin-5-yl)methyl)amino)-4-(neopentylamino)quinoline-3-carbonitrile]
Human Cot; [1]
  IC50: 3 nM
TNFα; [2]
  EC50: 51 nM

## [2H]C(Nc1cc(Cl)c2ncc(C#N)c(NCC(C)(C)C)c2c1)(c1cn(C2CC2)nn1)c1ccc(Cl)nc1C (stereo not shown) [Example 125, 8-chloro-6-(((6-chloro-2-methylpyridin-3-yl)(1-cyclopropyl-1H-1,2,3-triazol-4-yl)methyl-d)amino)-4-(neopentylamino)quinoline-3-carbonitrile]
Human Cot; [1]
  IC50: 3 nM
TNFα; [2]
  EC50: 78 nM

## Cc1cncc2cccc([C@H](Nc3cc(Cl)c4ncc(C#N)c(NCC(C)(C)C)c4c3)c3cn(C4(C(F)(F)F)CC4)nn3)c12 [Example 659, (S)-8-chloro-6-(((4-methylisoquinolin-5-yl)(1-(1-(trifluoromethyl)cyclopropyl)-1H-1,2,3-triazol-4-yl)methyl)amino)-4-(neopentylamino)quinoline-3-carbonitrile]
Human Cot; [1]
  IC50: 41 nM
TNFα; [2]
  EC50: 279 nM

## CCN1CCC(n2cc([C@@H](Nc3cc(Cl)c4ncc(C#N)c(Nc5ccc(F)c(Cl)c5)c4c3)c3cc(Cl)cs3)nn2)CC1 [Example 381, (R)-8-chloro-4-((3-chloro-4-fluoro-phenyl)amino)-6-(((4-chlorothiophen-2-yl)(1-(1-ethylpiperidin-4-yl)-1H-1,2,3-triazol-4-yl)methyl)amino)-quinoline-3-carbonitrile]
Human Cot; [1]
  IC50: 7 nM
TNFα; [2]
  EC50: 303 nM

## CC(C)(C)N1CCC(n2cc([C@@H](Nc3cc(Cl)c4ncc(C#N)c(Nc5ccc(F)c(Cl)c5)c4c3)c3cnco3)nn2)CC1 [Example 299, (R)-6-(((1-(1-(tert-butyl)piperidin-4-yl)-1H-1,2,3-triazol-4-yl)(oxazol-5-yl)methyl)amino)-8-chloro-4-((3-chloro-4-fluorophenyl)amino)quinoline-3-carbonitrile]
Human Cot; [1]
  IC50: 18 nM
TNFα; [2]
  EC50: 739 nM

## Cc1nc(F)ccc1[C@H](Nc1cc(Cl)c2ncc(C#N)c(NCC(C)(C)C)c2c1)c1cn(C(C)(C)C2CC2)nn1 [Example 758, (S)-8-chloro-6-(((1-(2-cyclopropylpropan-2-yl)-1H-1,2,3-triazol-4-yl)(6-fluoro-2-methylpyridin-3-yl)methyl)amino)-4-(neopentylamino)quinoline-3-carbonitrile]
Human Cot; [1]
  IC50: 4 nM
TNFα; [2]
  EC50: 50 nM

## [2H]C(Nc1cc(Cl)c2ncc(C#N)c(N[C@H](CCO)c3ccccc3)c2c1)(c1ccc(F)nc1)c1cn(C2CC2)nn1 (stereo partly drawn) [Example 121, 8-chloro-6-(((1-cyclopropyl-1H-1,2,3-triazol-4-yl)(6-fluoropyridin-3-yl)methyl-d)amino)-4-(((R)-3-hydroxy-1-phenylpropyl)amino)quinoline-3-carbonitrile]
Human Cot; [1]
  IC50: 7 nM
TNFα; [2]
  EC50: 171 nM

## Cc1nc(F)ccc1[C@H](Nc1cc(Cl)c2ncc(C#N)c(NCC(C)(C)C)c2c1)c1nnn(C2(C3CC3)CC2)c1F [Example 949, (S)-6-(((1-([1,1′-bi(cyclopropan)]-1-yl)-5-fluoro-1H-1,2,3-triazol-4-yl)(6-fluoro-2-methylpyridin-3-yl)methyl)amino)-8-chloro-4-(neopentylamino)quinoline-3-carbonitrile]
Human Cot; [3]
  IC50: 4 nM
TNFα; [4]
  EC50: 34 nM

## Cc1nc(F)ccc1[C@H](Nc1cc(Cl)c2ncc(C#N)c(NCC(C)(C)C)c2c1)c1cn(C2(C)COC2)nn1 [Example 759, (S)-8-chloro-6-(((6-fluoro-2-methylpyridin-3-yl)(1-(3-methyloxetan-3-yl)-1H-1,2,3-triazol-4-yl)methyl)amino)-4-(neopentylamino)quinoline-3-carbonitrile]
Human Cot; [1]
  IC50: 2 nM
TNFα; [2]
  EC50: 42 nM

## Cc1nc(F)ccc1[C@H](Nc1cc(Cl)c2ncc(C#N)c(NCC(C)(C)C(F)(F)F)c2c1)c1nnn(C2(C(F)F)CC2)c1F [Example 948, (S)-8-chloro-6-(((1-(1-(difluoromethyl)cyclopropyl)-5-fluoro-1H-1,2,3-triazol-4-yl)(6-fluoro-2-methylpyridin-3-yl)methyl)amino)-4-((3,3,3-trifluoro-2,2-dimethylpropyl)amino)-quinoline-3-carbonitrile]
Human Cot; [3]
  IC50: 5 nM
TNFα; [4]
  EC50: 99 nM

## Cc1nc(F)ccc1[C@H](Nc1cc(C#N)c2ncc(C#N)c(NCC(C)(C)C)c2c1)c1cn(C(C)(C)C2CC2)nn1 [Example 850, (S)-6-(((1-{2-cyclopropylpropan-2-yl)-1H-1,2,3-triazol-4-yl)(6-fluoro-2-methylpyridin-3-yl)methyl)amino)-4-(neopentylamino)quinoline-3,8-dicarbonitrile]
Human Cot; [3]
  IC50: 6 nM
TNFα; [4]
  EC50: 65 nM

## CC(C)(C)CNc1c(C#N)cnc2c(Cl)cc(N[C@H](c3cn(C4(C(F)F)CC4)nn3)c3cccc4ncsc34)cc12 [Example 421, (S)-6-((benzo[d]thiazol-7-yl(1-(1-(difluoromethyl)cyclopropyl)-1H-1,2,3-triazol-4-yl)methyl)amino)-8-chloro-4-(neopentylamino)quinoline-3-carbonitrile]
Human Cot; [1]
  IC50: 4 nM
TNFα; [2]
  EC50: 100 nM
